PMC12291850, “Morin Flavonoid Interaction with Albumin and Its Nanoparticle Conjugation: An Efficient Antioxidant Vehicle for Nutraceuticals” (Antioxidants, 2025)
Values belong to the compound of their own block, whether it stands above or below them.

Columns and labels:
[1] = Encapsulation efficiency in BSA nanoparticles (desolvation, HPLC of supernatant); format: physicochemical; conditions: unchanged when co-loaded with morin
[2] = cited from earlier work
[3] = biological target: T1, bovine serum albumin (BSA) (Bos taurus, UniProt P02769); test: Fluorescence quenching of BSA by flavonoids (Stern–Volmer, binding equation, van't Hoff); conditions: for Stern–Volmer quenching constant (Ksv): excitation 295 nm; for ΔG°: morin: 293–310 K
T1 construct: purchased Merck (Darmstadt, Germany)
T1 sequence (P02769 25-607): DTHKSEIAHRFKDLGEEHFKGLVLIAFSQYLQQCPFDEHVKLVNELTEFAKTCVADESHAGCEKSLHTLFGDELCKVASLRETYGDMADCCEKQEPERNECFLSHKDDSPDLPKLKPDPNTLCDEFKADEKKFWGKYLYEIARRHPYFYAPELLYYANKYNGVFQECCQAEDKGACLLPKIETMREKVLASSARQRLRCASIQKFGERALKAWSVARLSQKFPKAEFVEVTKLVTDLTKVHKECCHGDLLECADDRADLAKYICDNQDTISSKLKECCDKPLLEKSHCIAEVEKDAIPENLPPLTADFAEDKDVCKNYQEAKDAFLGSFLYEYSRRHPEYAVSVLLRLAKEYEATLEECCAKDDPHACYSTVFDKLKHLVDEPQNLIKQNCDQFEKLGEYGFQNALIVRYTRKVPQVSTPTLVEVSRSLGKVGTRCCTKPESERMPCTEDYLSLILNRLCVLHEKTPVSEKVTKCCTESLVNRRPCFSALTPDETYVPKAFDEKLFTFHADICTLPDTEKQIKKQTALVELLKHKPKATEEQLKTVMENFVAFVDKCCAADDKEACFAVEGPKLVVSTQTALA
Protocol: Fluorescence quenching spectroscopy was employed to investigate the interaction between bovine serum albumin (BSA) and selected flavonoids, including morin. All measurements were performed using a spectrofluorometer under controlled temperature conditions (25 °C).
To quantify the quenching effect upon encapsulation, the Stern–Volmer equation was applied (Equation (1)):F0/F = 1 + Ksv [Q](1) where F0 and F are the fluorescence intensities of BSA in the absence and presence of quencher (flavonoid), respectively, Ksv is the Stern–Volmer quenching constant, and [Q] is flavonoid concentration.
The binding constant (Ka) and the number of binding sites (n) were calculated using the logarithmic form of the binding equation (Equation (2)):log[(F0 − F)/F] = log Ka + n log[Q](2)
Thermodynamic parameters—Gibbs free energy change (ΔG°) (Equation (3)), enthalpy change (ΔH°), and entropy change (ΔS°)—were determined from the temperature dependence of the binding constant using the van’t Hoff equation (Equation (4)):ΔG° = ΔH° − TΔS°(3) ln Ka = −ΔH°/RT + ΔS°/R(4)

[4] = biological target: T1, bovine serum albumin (BSA); test: Surface plasmon resonance (SPR) analysis of albumin–morin interaction; format: binding
Protocol: Gold-coated sensor chips were first cleaned and subsequently modified with a self-assembled monolayer (SAM) of 4-mercaptobenzoic acid (4-MBA) to introduce carboxyl functional groups on the sensor surface.
Non-reacted sites were blocked with 1 M ethanolamine (pH 8.5).
Sensorgrams were recorded in real time, and binding responses were referenced against control channels and buffer-only injections.
Equilibrium binding data were analyzed using Langmuir isotherm models to estimate the apparent association constant (Ka), dissociation constant (Kd), and maximum binding response (Rmax). Data fitting and kinetic analysis were performed using the instrument’s integrated software suite.

[5] = Photolysis and photooxidation (hydroxyl radical from H2O2 under UV 254 nm) of morin, HPLC-DAD; format: physicochemical
Protocol: Morin was incorporated into the system by adding small aliquots of a stock solution in ethanol, ensuring the final ethanol concentration remained below 2% (v/v) to avoid solvent-induced effects on photoreactivity. Oxidative conditions were simulated by the addition of hydrogen peroxide to a final concentration of 0.5% (w/v), serving as a source of hydroxyl radicals upon UV activation. Each reaction mixture was vortexed to ensure homogeneity and subsequently transferred into 5 mL double-jacketed quartz cuvettes. The outer surface of each cuvette was coated with opaque black paint to prevent ambient light interference, except for a centrally located circular window (1 cm diameter) designed to permit focused irradiation. A circulating water bath maintained the cuvette temperature at 20 ± 0.5 °C. Photolysis was carried out using a high-power mercury UV lamp emitting at 254 nm. […] Quantitative analysis of morin degradation and spectral changes associated with hydroxyl radical attack was performed using high-performance liquid chromatography with diode array detection (HPLC-DAD) and UV–visible spectrophotometry.
(§1) A high-performance liquid chromatography (HPLC) method was developed and validated to quantify morin for the subsequent evaluation of encapsulation efficiency, drug loading capacity, physicochemical stability, photodegradation under ultraviolet (UV) exposure, and hydroxyl radical scavenging activity. Chromatographic analyses were conducted using a Shimadzu LC-20AT HPLC system (Shimadzu, Kyoto, Japan), equipped with a SIL-20A autosampler and an SPD-M20A photodiode array (PDA) detector. Separation was achieved on a C18 ODS Hypersil column (250 mm × 4.6 mm, 5 μm particle size; Agilent Technologies, Santa Clara, CA, USA). The mobile phase consisted of acetonitrile and 0.1% trifluoroacetic acid in water (30:70, v/v), delivered under isocratic conditions at a flow rate of 1.0 mL/min. The injection volume was set at 20 μL. Morin detection was performed at a wavelength of 360 nm using the PDA detector. The method was optimized to ensure adequate peak resolution, retention time reproducibility, and sensitivity for low-concentration samples. This analytical approach was employed throughout the study to monitor morin concentration in various experimental settings, including nanoparticle formulations and stability assays.

[6] = biological target: T1, bovine serum albumin (BSA); test: Circular dichroism of BSA with morin under oxidative conditions; conditions: morin 10 and 20 µM, UV irradiation and hydrogen peroxide
Protocol: Measurements were performed using a J-1500 CD spectropolarimeter (JASCO, Tokyo, Japan) equipped with a temperature-controlled cell holder maintained at 25 °C. Spectra were acquired using a 0.1 cm path length quartz cuvette. Each spectrum represents the average of three consecutive scans, recorded at a scanning speed of […] with a response time of 1 s. […] For oxidative conditions, hydrogen peroxide was added to a final concentration of 0.5% (w/v) to promote hydroxyl radical generation. All solutions were prepared in 10 mM phosphate buffer at pH 7.4 and allowed to equilibrate for 15 min before measurement. Spectra were corrected by subtracting the baseline of the corresponding buffer or hydrogen peroxide control solution.

[7] = Encapsulation efficiency in BSA nanoparticles (desolvation, HPLC of supernatant); format: physicochemical
Protocol: as §1
The impact of other antioxidant molecules (ellagic acid and tocopherol succinate) on the behavior of morin encapsulated in BSA nanoparticles in an intestinal environment was assessed through in vitro loading and release experiments. […] Then, ethanol was added dropwise under constant stirring, followed by the addition of 20 µL of an 8% glutaraldehyde solution [25]. The final volume of the mixture was adjusted to 10 mL. After 24 h, the nanoparticles were collected by centrifugation (13,500 rpm, 20 min, and 25 °C) and washed with water. The supernatant was separated for further analysis. To incorporate ellagic acid or tocopherol succinate, each compound—either individually or in combination—was included in the ethanol phase during the dropwise addition. The rest of the procedure remained unchanged. The encapsulation efficiency (%EE) was calculated using Equation (5):(5) %EE=Mi−Mf/Mi×100 where Mi and Mf correspond to the initial amount of morin added during the loading process and the free morin in the supernatant, respectively.

[8] = set-up: method as in doi:10.1039/C6RA20441D; conditions: cited from earlier work
[9] = system: human serum albumin (HSA); conditions: fluorescence studies; cited from earlier work
[10] = BSA nanoparticles prepared via desolvation
[11] = BSA fluorescence quenching, 25 °C
[12] = flavonoid–BSA complex, van't Hoff analysis
[13] = read-out: binding constant (Ka) (converted)

Structure (SMILES): O=c1oc2cc(O)ccc2c2oc3cc(O)ccc3c12 [coumestrol]
encapsulation efficiency of coumestrol [1]: 22.4% ± 0.1% | encapsulation efficiency in BSA nanoparticles ([2]; previous studies): 22.4% ± 0.1%

Structure (SMILES): O=c1c(O)c(-c2ccc(O)c(O)c2)oc2cc(O)ccc12 [fisetin]
average particle size [2, 10]: 200 ± 8 nm | encapsulation efficiency [2, 10]: 84%

Structure (SMILES): O=c1c(O)c(-c2ccc(O)cc2O)oc2cc(O)cc(O)c12 [morin, 3,5,7,2′,4′-pentahydroxyflavone]
Kd [3]: 5.35 µM | number of binding sites (n) ([3]; BSA fluorescence quenching): 1.10 ± 0.02 | bimolecular quenching rate constant (kq) [3, 11]: 1.76 × 10^13 ± 0.02 L mol^−1 s^−1 | binding constant (Ka) [3, 11]: 187000 L/mol | Stern–Volmer quenching constant (Ksv) [3, 11]: 1.76 × 10^5 ± 0.03 L mol^−1 | ΔH° [3, 12]: –28.7 kJ·mol^−1 | ΔS° [3, 12]: 4.75 J·mol^−1·K^−1 | ΔG° [3, 12]: approximately –30.1 kJ·mol^−1 | Kd [4]: 285 µM | initial morin concentration retained ([5]; UV exposure with hydrogen peroxide, 10 min, 2 µM BSA, pH 7.4): 79% | morin concentration remaining ([5]; UV exposure with hydrogen peroxide, 10 min, absence of BSA, pH 7.4): 61.5% | initial morin concentration remaining ([5]; UV photolysis, 10 min, absence of BSA, phosphate buffer pH 7.4): 94.9% | improvement in morin retention compared to the system without BSA ([5]; photooxidation 10 min, 2 µM BSA): 17.5% | effect on BSA secondary structure (CD ellipticity at 208 and 222 nm) [6]: no significant loss of α-helical structure | %EE of morin ([7]; BSA nanoparticles co-loaded with both ellagic acid and tocopherol succinate): 80% | %EE of morin ([7]; BSA nanoparticles co-loaded with ellagic acid): 76% | %EE of morin ([7]; BSA nanoparticles co-loaded with tocopherol succinate): 72.6% | %EE of morin ([7]; encapsulated alone in BSA nanoparticles (comparison with coumestrol co-loading)): 20.5% ± 3.0% | %EE ([7]; initial [Morin] 0.128 mM): 25.97 ± 4.29% | Morin/BSA molar ratio ([7]; initial [Morin] 0.128 mM): 0.30 ± 0.05 | %EE ([7]; initial [Morin] 0.222 mM): 20.42 ± 0.67% | Morin/BSA molar ratio ([7]; initial [Morin] 0.222 mM): 0.48 ± 0.02 | %EE ([7]; initial [Morin] 0.308 mM): 19.31 ± 0.42% | Morin/BSA molar ratio ([7]; initial [Morin] 0.308 mM): 0.68 ± 0.01 | %EE ([7]; initial [Morin] 0.507 mM): 20.99 ± 0.27% | Morin/BSA molar ratio ([7]; initial [Morin] 0.507 mM): 0.98 ± 0.01 | Morin/BSA molar ratio ([7]; initial [Morin] 0.634 mM): 1.01 ± 0.04 | %EE ([7]; initial [Morin] 1.478 mM): 18.94 ± 0.85% | Morin/BSA molar ratio ([7]; initial [Morin] 1.478 mM): 1.48 ± 0.07 | encapsulation efficiencies (maximum) ([7]; morin in BSA nanoparticles prepared by desolvation): up to 26% | extended release ([8]; 72 h, pH 7.4): up to 80% | initial 6 h release ([8]; stated for both this study (SIF) and the literature study (pH 7.4)): < 40%

Structure (SMILES): O=C(/C=C/c1ccc(O)c(O)c1)O[C@H](Cc1ccc(O)c(O)c1)C(=O)O [rosmarinic acid]
association constant (K) [9]: ~10^7 M^−1

Now from value to compound:

Kd [3]: 11.4 µM | number of binding sites (n) ([3]; BSA fluorescence quenching): 1.22 ± 0.04 | bimolecular quenching rate constant (kq) [3, 11]: 8.11 × 10^12 ± 0.04 L mol^−1 s^−1 | Stern–Volmer quenching constant (Ksv) [3, 11]: 8.11 × 10^4 ± 0.02 L mol^−1
Structure (SMILES): O=c1c(-c2ccc(O)cc2)coc2cc(O)cc(O)c12 [genistein]

number of binding sites (n) ([3]; BSA fluorescence quenching): 0.94 ± 0.01 | bimolecular quenching rate constant (kq) [3, 11]: 3.66 × 10^12 ± 0.04 L mol^−1 s^−1 | Stern–Volmer quenching constant (Ksv) [3, 11]: 3.66 × 10^4 ± 0.05 L mol^−1 | ΔG° [3, 12]: –26.9 kJ·mol^−1 | Kd [3, 13]: 29.5 µM
Structure (SMILES): O=c1c(-c2ccc(O)cc2)coc2cc(O[C@@H]3O[C@H](CO)[C@@H](O)[C@H](O)[C@H]3O)cc(O)c12 [genistin]

number of binding sites (n) ([3]; BSA fluorescence quenching): 1.33 ± 0.03 | bimolecular quenching rate constant (kq) [3, 11]: 2.23 × 10^13 ± 0.02 L mol^−1 s^−1 | Stern–Volmer quenching constant (Ksv) [3, 11]: 2.23 × 10^5 ± 0.03 L mol^−1 | Kd [3, 13]: 5.99 µM
Structure (SMILES): O=c1c(O)c(-c2ccc(O)cc2)oc2cc(O)cc(O)c12 [kaempferol]

number of binding sites (n) ([3]; BSA fluorescence quenching): 1.13 ± 0.02 | bimolecular quenching rate constant (kq) [3, 11]: 1.88 × 10^13 ±0.03 L mol^−1 s^−1 | Stern–Volmer quenching constant (Ksv) [3, 11]: 1.88 × 10^5 ± 0.02 L mol^−1
Structure (SMILES): O=c1c(O)c(-c2ccc(O)c(O)c2)oc2cc(O)cc(O)c12 [quercetin]
